Test results taken from patent EP4729529A1, “PREPARATION OF PEPTIDE INHIBITOR OF INTERLEUKIN-23 RECEPTOR AND USE THEREOF” (Xizang Haisco Pharmaceutical Co., Ltd., priority 2023, dated 2024).
pIC50: −log10 of the molar value. Starred links: 1 amine or outer side, 2 acyl side, 3 side chain; linkers in the order of their positions; H or OH if unused. Positions of bridges follow the written chain, without caps; N, C: chain ends. Non-standard residues stand in square brackets, D forms with d. Residues, ends and D or L forms follow the SMILES beside them. Groups on a side chain read outwards from the residue. *: point of attachment. Phe(4-OC2H4NH2,2,3-(CH2)3) = NCCOc1ccc(C[C@H](N)C(=O)O)c2c1CCC2; Trp(7-cPr) = N[C@@H](Cc1c[nH]c2c(C3CC3)cccc12)C(=O)O; Trp(7-Me) = Cc1cccc2c(C[C@H](N)C(=O)O)c[nH]c12; C18 diacid = O=C(O)CCCCCCCCCCCCCCCCC(=O)*; γGlu = O=C(O)[C@H](CCC(=O)[*:2])N[*:1]; 2Nal = N[C@@H](Cc1ccc2ccccc2c1)C(=O)O; TBMB = c1c(C[*:1])cc(C[*:3])cc1C[*:2]; X1 = O=C(C(N[*:1])C1(S[*:3])CC1)[*:2]; X3 = C(c1nc(C[*:2])nc(C[*:3])n1)[*:1]; Thp(SO2) = NC1(C(=O)O)CCS(=O)(=O)CC1; mXylylene = c1cc(C[*:1])cc(C[*:2])c1; oXylylene = c1ccc(C[*:2])c(C[*:1])c1; AEF = NCCOc1ccc(C[C@H](N)C(=O)O)cc1; 3Pal = N[C@@H](Cc1cccnc1)C(=O)O; X5 = COCCOCCOCCOCCOCCOCC(=O)*; Pen = CC(C)(S)[C@H](N)C(=O)O; Thp = NC1(C(=O)O)CCOCC1; Dap = NC[C@H](N)C(=O)O; AEEA = NCCOCCOCC(=O)O; CO = O=C([*:1])[*:2]; Sar = CNCC(=O)O

Biological target: T1, IL-23α/IL-12β and IL-23R (Homo sapiens, UniProt Q5VWK5)
T1 construct: purchased ACRO ILR-H82F3 (IL-23R); ILB-H52W5 (IL-23α/IL-12β)
T1 sequence (Q5VWK5 24-353 limits assumed): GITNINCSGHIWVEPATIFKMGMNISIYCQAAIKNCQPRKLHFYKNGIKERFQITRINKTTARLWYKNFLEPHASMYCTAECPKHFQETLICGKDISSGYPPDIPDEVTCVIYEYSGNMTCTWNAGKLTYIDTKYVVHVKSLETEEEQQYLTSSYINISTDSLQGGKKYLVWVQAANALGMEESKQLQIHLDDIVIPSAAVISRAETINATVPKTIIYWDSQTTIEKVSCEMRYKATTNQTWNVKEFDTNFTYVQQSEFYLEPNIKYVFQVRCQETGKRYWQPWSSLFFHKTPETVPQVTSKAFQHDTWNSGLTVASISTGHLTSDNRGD
Assay: IL-23α/IL-12β and IL-23R binding assay (TR-FRET/HTRF)
Conditions: inhibition of the binding of IL-23α/IL-12β to IL-23R, TR-FRET; both proteins 0.3 nM
Experimental: 1. IL-23α/IL-12β and IL-23R binding assay
Compounds were tested for their inhibition on the binding of IL-23α/IL-12β to IL-23R by the TR-FRET method. Solutions of proteins IL-23α/IL-12β (ACRO, Cat# ILB-H52W5) and IL-23R (ACRO, Cat# ILR-H82F3) were prepared in reaction buffer PPI (PerkinElmer, Cat# 61DB10RDF). The final concentrations of IL-23α/IL-12β and IL-23R in the reaction mixture were both 0.3 nM. Positive reference Guselkumab was 3-fold diluted from an initial concentration of 30 nM, with 10 doses. 0.1 µL of the positive reference diluted in the reaction buffer was delivered to a 384-well plate (Grenier, Cat# 784075) by the acoustic liquid delivery technique (Echo 655), and the plate was centrifuged at 1000 rpm for 1 minute. 2.5 µL of IL-23α/IL-12β solution was transferred into the 384-well reaction plate, and the plate was centrifuged at 1000 rpm for 1 minute, and incubated at 25°C for 60 minutes. 2.5 µL of IL-23R solution was transferred into the 384-well reaction plate, and the plate was centrifuged at 1000 rpm for 1 minute. 5 µL of Streptavidin-Tb cryptate and Anti 6HIS-d2 detection mixture was transferred into the 384-well reaction plate, and the plate was centrifuged at 1000 rpm for 1 minute, and incubated at 25°C for 60 minutes. Finally, the HTRF signal (Ratio 665/620 nm) was read with a BMG high-throughput drug screening multifunctional microplate reader. IC50 values were obtained by nonlinear regression curve fitting using GraphPad Prism software.

Compound	pIC50
CC(=O)NCCCC[C@@H]1NC(=O)[C@H](Cc2c[nH]c3c(C)cccc23)NC(=O)[C@H]([C@@H](C)O)NC(=O)[C@H](CC(N)=O)NC(=O)C(NC(C)=O)CCCC[C@@H](C(=O)N[C@@H](Cc2ccc(OCCN)cc2)C(=O)N[C@@H](Cc2ccc3ccccc3c2)C(=O)NC2(C(=O)N[C@@H](CCC(=O)O)C(=O)N[C@@H](CC(N)=O)C(=O)N[C@@H](Cc3cccnc3)C(=O)N(C)CC(N)=O)CCOCC2)NC1=O (single isomer, unassigned) [Compound 44-1]	9.84
CC(=O)NCCCC[C@@H]1NC(=O)[C@H](Cc2c[nH]c3c(C)cccc23)NC(=O)[C@H]([C@@H](C)O)NC(=O)[C@H](CC(N)=O)NC(=O)C(NC(C)=O)CCCC[C@@H](C(=O)N[C@@H](Cc2ccc(OCCN)cc2)C(=O)N[C@@H](Cc2ccc3ccccc3c2)C(=O)NC2(C(=O)N[C@@H](CCC(=O)O)C(=O)N[C@@H](CC(N)=O)C(=O)N[C@@H](Cc3cccnc3)C(=O)N(C)CC(N)=O)CCOCC2)NC1=O (single isomer, unassigned) [Compound 44-2]	9.87
CC(=O)N[C@H]1CSCc2cc3cc(c2)CSC[C@@H](C(=O)N[C@@H](CC(N)=O)C(=O)N[C@@H](Cc2cccnc2)C(=O)N(C)CC(N)=O)NC(=O)C2(CCS(=O)(=O)CC2)NC(=O)[C@H](Cc2ccc4ccccc4c2)NC(=O)[C@H](Cc2ccc(OCCN)c4c2CCC4)NC(=O)[C@H](CSC3)NC(=O)[C@H](CCC(N)=O)NC(=O)[C@H](Cc2c[nH]c3c(C)cccc23)NC(=O)[C@H]([C@@H](C)O)NC(=O)[C@H](Cc2c[nH]cn2)NC1=O [Compound 19] (Ac-CHT[Trp(7-Me)]QC[Phe(4-OC2H4NH2,2,3-(CH2)3)][2Nal][Thp(SO2)]CN[3Pal][Sar]-NH2; linker 1-6-10 via TBMB)	9.61
C[C@@H](O)[C@@H]1NC(=O)[C@H](Cc2c[nH]cn2)NC(=O)[C@@H](NC(=O)COCCOCCNC(=O)COCCOCCNC(=O)CC[C@H](NC(=O)CCCCCCCCCCCCCCCCC(=O)O)C(=O)O)C(C)(C)SSC(C)(C)[C@@H](C(=O)N[C@@H](Cc2ccc(OCCN)c3c2CCC3)C(=O)N[C@@H](Cc2ccc3ccccc3c2)C(=O)NC2(C(=O)N[C@@H](CCC(=O)O)C(=O)N[C@@H](CC(N)=O)C(=O)N[C@@H](Cc3cccnc3)C(=O)N(C)CC(N)=O)CCS(=O)(=O)CC2)NC(=O)[C@H](CCC(N)=O)NC(=O)[C@H](Cc2c[nH]c3c(C4CC4)cccc23)NC1=O [Compound 20] ({C18 diacid-γGlu-AEEA-AEEA}-[Pen]HT[Trp(7-cPr)]Q[Pen][Phe(4-OC2H4NH2,2,3-(CH2)3)][2Nal][Thp(SO2)]EN[3Pal][Sar]-NH2; disulfide 1-6)	9.94
CC(=O)N[C@@H]1C(=O)N[C@@H](Cc2c[nH]cn2)C(=O)N[C@@H]([C@@H](C)O)C(=O)N[C@@H](Cc2c[nH]c3c(C4CC4)cccc23)C(=O)N[C@@H](CCCCNC(=O)COCCOCCNC(=O)COCCOCCNC(=O)CC[C@H](NC(=O)CCCCCCCCCCCCCCCCC(=O)O)C(=O)O)C(=O)N[C@H](C(=O)N[C@@H](Cc2ccc(OCCN)c3c2CCC3)C(=O)N[C@@H](Cc2ccc3ccccc3c2)C(=O)NC2(C(=O)N[C@@H](CCC(=O)O)C(=O)N[C@@H](CC(N)=O)C(=O)N[C@@H](Cc3cccnc3)C(=O)N(C)CC(N)=O)CCS(=O)(=O)CC2)C(C)(C)SSC1(C)C [Compound 21] (Ac-[Pen]HT[Trp(7-cPr)]K([AEEA-AEEA-γGlu-C18 diacid])[Pen][Phe(4-OC2H4NH2,2,3-(CH2)3)][2Nal][Thp(SO2)]EN[3Pal][Sar]-NH2; disulfide 1-6)	9.61
CC(=O)N[C@H]1CNC(=O)NC[C@@H](C(=O)N[C@@H](Cc2ccc(OCCN)cc2)C(=O)N[C@@H](Cc2ccc3ccccc3c2)C(=O)NC2(C(=O)N[C@@H](CCC(=O)O)C(=O)N[C@@H](CC(N)=O)C(=O)N[C@@H](Cc3cccnc3)C(=O)N(C)CC(N)=O)CCOCC2)NC(=O)[C@H](CCC(N)=O)NC(=O)[C@H](Cc2c[nH]c3c(C)cccc23)NC(=O)[C@H]([C@@H](C)O)NC(=O)[C@H](Cc2c[nH]cn2)NC1=O [Compound 23] (Ac-[Dap]HT[Trp(7-Me)]Q[Dap][AEF][2Nal][Thp]EN[3Pal][Sar]-NH2; linker 1-6 via CO)	9.79
CC(=O)N[C@H]1CSCc2cccc(c2)CSC[C@@H](C(=O)N[C@@H](Cc2ccc(OCCN)c3c2CCC3)C(=O)N[C@@H](Cc2ccc3ccccc3c2)C(=O)NC2(C(=O)N[C@@H](CCC(=O)O)C(=O)N[C@@H](CC(N)=O)C(=O)N[C@@H](Cc3cccnc3)C(=O)N(C)CC(N)=O)CCS(=O)(=O)CC2)NC(=O)[C@H](CCC(N)=O)NC(=O)[C@H](Cc2c[nH]c3c(C)cccc23)NC(=O)[C@H]([C@@H](C)O)NC(=O)[C@H](Cc2c[nH]cn2)NC1=O [Compound 30] (Ac-CHT[Trp(7-Me)]QC[Phe(4-OC2H4NH2,2,3-(CH2)3)][2Nal][Thp(SO2)]EN[3Pal][Sar]-NH2; linker 1-6 via mXylylene)	9.34
CC(=O)N[C@H]1CSCc2ccccc2CSC[C@@H](C(=O)N[C@@H](Cc2ccc(OCCN)c3c2CCC3)C(=O)N[C@@H](Cc2ccc3ccccc3c2)C(=O)NC2(C(=O)N[C@@H](CCC(=O)O)C(=O)N[C@@H](CC(N)=O)C(=O)N[C@@H](Cc3cccnc3)C(=O)N(C)CC(N)=O)CCS(=O)(=O)CC2)NC(=O)[C@H](CCC(N)=O)NC(=O)[C@H](Cc2c[nH]c3c(C)cccc23)NC(=O)[C@H]([C@@H](C)O)NC(=O)[C@H](Cc2c[nH]cn2)NC1=O [Compound 31] (Ac-CHT[Trp(7-Me)]QC[Phe(4-OC2H4NH2,2,3-(CH2)3)][2Nal][Thp(SO2)]EN[3Pal][Sar]-NH2; linker 1-6 via oXylylene)	9.59
CC(=O)N[C@H]1CSCc2nc3nc(n2)CSC[C@@H](C(=O)N[C@@H](CC(N)=O)C(=O)N[C@@H](Cc2cccnc2)C(=O)N(C)CC(N)=O)NC(=O)C2(CCS(=O)(=O)CC2)NC(=O)[C@H](Cc2ccc4ccccc4c2)NC(=O)[C@H](Cc2ccc(OCCN)c4c2CCC4)NC(=O)[C@H](CSC3)NC(=O)[C@H](CCC(N)=O)NC(=O)[C@H](Cc2c[nH]c3c(C)cccc23)NC(=O)[C@H]([C@@H](C)O)NC(=O)[C@H](Cc2c[nH]cn2)NC1=O [Compound 33] (Ac-CHT[Trp(7-Me)]QC[Phe(4-OC2H4NH2,2,3-(CH2)3)][2Nal][Thp(SO2)]CN[3Pal][Sar]-NH2; linker 1-6-10 via X3)	9.40
COCCOCCOCCOCCOCCOCC(=O)N[C@@H]1C(=O)N[C@@H](Cc2c[nH]cn2)C(=O)N[C@@H]([C@@H](C)O)C(=O)N[C@@H](Cc2c[nH]c3c(C4CC4)cccc23)C(=O)N[C@@H](CCC(N)=O)C(=O)N[C@H](C(=O)N[C@@H](Cc2ccc(OCCN)c3c2CCC3)C(=O)N[C@@H](Cc2ccc3ccccc3c2)C(=O)NC2(C(=O)N[C@@H](CCC(=O)O)C(=O)N[C@@H](CC(N)=O)C(=O)N[C@@H](Cc3cccnc3)C(=O)N(C)CC(N)=O)CCS(=O)(=O)CC2)C(C)(C)SSC1(C)C [Compound 35] (X5-[Pen]HT[Trp(7-cPr)]Q[Pen][Phe(4-OC2H4NH2,2,3-(CH2)3)][2Nal][Thp(SO2)]EN[3Pal][Sar]-NH2; disulfide 1-6)	10.20
CC(=O)N[C@@H](CCC(=O)NCCOCCOCC(=O)NCCOCCOCC(=O)N[C@@H]1C(=O)N[C@@H](Cc2c[nH]cn2)C(=O)N[C@@H]([C@@H](C)O)C(=O)N[C@@H](Cc2c[nH]c3c(C4CC4)cccc23)C(=O)N[C@@H](CCC(N)=O)C(=O)N[C@H](C(=O)N[C@@H](Cc2ccc(OCCN)c3c2CCC3)C(=O)N[C@@H](Cc2ccc3ccccc3c2)C(=O)NC2(C(=O)N[C@@H](CCC(=O)O)C(=O)N[C@@H](CC(N)=O)C(=O)N[C@@H](Cc3cccnc3)C(=O)N(C)CC(N)=O)CCS(=O)(=O)CC2)C(C)(C)SSC1(C)C)C(=O)O [Compound 36] (Ac-[γGlu][AEEA][AEEA][Pen]HT[Trp(7-cPr)]Q[Pen][Phe(4-OC2H4NH2,2,3-(CH2)3)][2Nal][Thp(SO2)]EN[3Pal][Sar]-NH2; disulfide 4-9)	10.38
CC(=O)NCCCC[C@@H]1NC(=O)[C@H](Cc2c[nH]c3c(C)cccc23)NC(=O)[C@H]([C@@H](C)O)NC(=O)[C@H](CC(N)=O)NC(=O)C(NC(C)=O)C2(CC2)SSC(C)(C)[C@@H](C(=O)N[C@@H](Cc2ccc(OCCN)cc2)C(=O)N[C@@H](Cc2ccc3ccccc3c2)C(=O)NC2(C(=O)N[C@@H](CCC(=O)O)C(=O)N[C@@H](CC(N)=O)C(=O)N[C@@H](Cc3cccnc3)C(=O)N(C)CC(N)=O)CCOCC2)NC1=O (stereo partly drawn) [Compound 37] (Ac-[X1]NT[Trp(7-Me)]K(Ac)[Pen][AEF][2Nal][Thp]EN[3Pal][Sar]-NH2; disulfide 1-6 (inferred))	10.30
